Reference: PMC8380656, “The structure and flexibility analysis of the Arabidopsis synaptotagmin 1 reveal the basis of its regulation at membrane contact sites” (Life Science Alliance, 2021)

T1: SYT1C2A (Arabidopsis thaliana, UniProt Q9SKR2)
T1 construct: gene SYT1; C2A domain, residues K253-E397; pGEX6P1, GST tag cleaved with PreScission protease; expressed in E. coli Rosetta 2 (DE3) pLysS
T1 sequence (Q9SKR2 253-397): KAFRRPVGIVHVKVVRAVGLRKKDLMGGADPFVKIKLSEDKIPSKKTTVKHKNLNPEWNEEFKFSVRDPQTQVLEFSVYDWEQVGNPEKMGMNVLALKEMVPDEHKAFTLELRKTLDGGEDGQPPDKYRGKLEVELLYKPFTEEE

B1: SYT1-SMPC2A (Arabidopsis synaptotagmin 1, SMP and C2A domains, residues N34-E397) (domain or fragment, UniProt Q9SKR2 34-397, looked up)
chain: NDVKDPEIRSIADQDPKAMLRMLPEIPLWVKNPDFDRVDWINRFLEYMWPYLDKAICKTAKNIAKPIIEEQIPKYKIDSVEFETLTLGSLPPTFQGMKVYLTDEKELIMEPCLKWAANPNILVAIKAFGLKATVQVVDLQVFAQPRITLKPLVPSFPCFANIYVSLMEKPHVDFGLKLGGADLMSIPGLYRFVQEQIKDQVANMYLWPKTLVVPILDPAKAFRRPVGIVHVKVVRAVGLRKKDLMGGADPFVKIKLSEDKIPSKKTTVKHKNLNPEWNEEFKFSVRDPQTQVLEFSVYDWEQVGNPEKMGMNVLALKEMVPDEHKAFTLELRKTLDGGEDGQPPDKYRGKLEVELLYKPFTEEE
notes: Expressed from pGEX6P1; also called SMP2C2A; source: E. coli Rosetta 2 (DE3) pLysS, purified (Glutathione Sepharose 4B, GST cleaved with Precission protease, Superdex 200)

Target: the molecule itself
Experiment: SAXS (SEC-SAXS); 45 ul of SYT1SMPC2A at 6.6 mg ml^-1 injected onto Superdex 200 increase 3.2/300 at 20°C; 20 mM Tris pH 8, 100 mM NaCl, 5% glycerol, 2 mM DTT; molecular mass from the Porod volume
Details: not given
With B1 the “stoichiometry N” value was 2.

What follows are molecules tested against T1, SYT1C2A (assay: thermal shift, label-free nanoDSF (Tycho NT.[…])). Details: 58 μM ligand, 5.8 μM protein, 20 μM EGTA, Tris-HCl pH 8.0; absolute inflexion temperature, unbound control 57.4 ± 0.5; polybasic site.
Format: binding
With O=P(O)(O)O[C@@H]1[C@H](O)[C@H](O)[C@@H](OP(=O)(O)O)[C@H](OP(=O)(O)O)[C@H]1O [IP3, inositol 1,4,5-trisphosphate] the SYT1C2A was 62.60 ± 0.05 °C. Work on O=P(O)(O)O[C@@H]1[C@@H](OP(=O)(O)O)[C@H](OP(=O)(O)O)[C@@H](O)[C@@H](O)[C@H]1OP(=O)(O)O [IP(1,4,5,6), inositol 1,4,5,6-tetraphosphate] yielded an SYT1C2A of 62.6 ± 0.2 °C. Work on O=P(O)(O)O[C@H]1[C@H](O)[C@@H](O)[C@H](OP(=O)(O)O)[C@@H](OP(=O)(O)O)[C@H]1O [IP(1,3,4), inositol 1,3,4-trisphosphate] yielded an SYT1C2A of 64.2 ± 0.1 °C. With O=P(O)(O)O[C@H]1[C@H](OP(=O)(O)O)[C@@H](OP(=O)(O)O)[C@@H](O)[C@@H](O)[C@@H]1OP(=O)(O)O [IP(3,4,5,6), inositol 3,4,5,6-tetraphosphate] the SYT1C2A was 65.2 ± 0.4 °C. Work on O=P(O)(O)O[C@H]1[C@H](O)[C@@H](O)[C@H](OP(=O)(O)O)[C@@H](O)[C@H]1O [IP2, inositol 1,4-biphosphate] yielded an SYT1C2A of 59.4 ± 0.2 °C.
